Data: patent US10065965B2, “Imidazo[1,2-B][1,2,4]triazine derivatives as antiparasitic agents” (GlaxoSmithKline Intellectual Property Development Limited, priority 2015, dated 2018)
Values after ≈ are worked out from the molar mass of the structure shown.

Columns and labels:
[1] = Assay 1 intramacrophage Leishmania donovani assay, THP-1 cell count (cytotoxicity readout); type: cell-based; details: human, minimum threshold 4.3, read-out: cytotoxicity against THP-1 cells, pEC50 value (converted)
Experimental: (§1) The intramacrophage Leishmania assay was performed using a modified version of the method described in De Rycker et al. (Antimicrob Agents Chemother. 2013 July; 57(7):2913-22. Comparison of a high-throughput high-content intracellular Leishmania donovani assay with an axenic amastigote assay. De Rycker M, Hallyburton I, Thomas J, Campbell L, Wyllie S, Joshi D, Cameron S, Gilbert I H, Wyatt P G, Frearson J A, Fairlamb A H, Gray D W.). Procedure: 350 nl of compound was pre-dispensed into 384 well sterile intermediary plates. For single point screening, amphotericin B was added to all wells of column 24 as a positive control (final concentration 2 μM) and DMSO to column 23. For potency determinations, ten-point, one in three dilution curves were created with the highest concentration being 50 μM and on each plate a control curve of amphotericin B was included. Controls were as follows: columns 11 and 12: DMSO, columns 23 and 24: amphotericin B (final concentration 2 μM). To the intermediary plates, 35 μl of THP-1 media was added and plates were shaken for >5 min to ensure complete mixing. THP-1 cells (8,000 per well, 50 μl) were plated into black clear-bottom 384 well plates (Corning) in presence of 20 nM PMA. After 20 min at RT, the plates were incubated at 37° C. under 5% CO2 in a humidified incubator for 75 h. The cells were then washed with […] sterile phosphate buffered saline (PBS) supplemented with 1 mM CaCl2, 0.5 mM MgCl2, 0.1% (w/v) bovine serum albumin (PBS-A) and amastigotes were added to all wells at a multiplicity of infection of 5 (40,000 amastigotes per well). After 40 min at RT, plates were returned to the incubator. Amastigotes were incubated in the presence of THP-1 macrophages for 16 h. Any remaining extracellular amastigotes were subsequently removed with an overflow wash of 1 mL PBS-A per well (wash buffer is being aspirated from the top of the well as it is being dispensed) followed by addition of 25 μl of the compound pre-dilutions using a Fluidx Ipette-pro pipetting station. The final dilution of each compound was 200-fold. Plates were incubated for 96 h and then washed (250 μl PBS-A) and fixed (4% (v/v) formaldehyde-PBS, 30 min, RT). After fixation, the wells were washed with 250 μl PBS, stained (10 μg/mL DAPI, 0.4 μg mL-1 HCS Cellmask Deep Red in PBS+0.1% (v/v) Triton X-100, 30 min, RT) and washed with 250 μl PBS. Finally, PBS+0.05% (v/v) thimerosal was added to the wells, the plates were sealed and imaged on a high-content microscope (GE IN Cell 2000) using a 10× objective. Image analysis was carried out with GE IN Cell Analyzer 1000 Workstation using the “Multi Target Analysis” module. Settings for segmentation were as follows: nuclei: minimum area: 142.384 μm2, sensitivity: 81, method: top-hat; cells: characteristic area: 2500 μm2, sensitivity: 60, method: multiscale top-hat; organelles (amastigotes): granule size 1-3, 3 scales, sensitivity: 90, detection in entire cell. For each well, i) THP-1 cell count (cytotoxicity readout) and ii) average number of amastigotes per cell (potency readout) were calculated, both in terms of pEC50 values.

[2] = Assay 5 Leishmania donovani intracellular assay, cytotoxicity against THP-1 cells; type: cell-based; details: human, total number of THP-1 cells, minimum threshold 4.3, read-out: cytotoxicity against THP-1 cells, pEC50 value (converted)
Experimental: Compounds were dispensed into black 384-well assay plates (Greiner) by acoustic dispensing (LabCyte ECHO). For potency determinations, eleven-point, one in three dilution curves were generated, with a top concentration of 50 μM. THP-1 human monocytes cells were dispensed in T225 tissue culture flasks and differentiated using 30 nM of PMA, after 24 hours they were infected overnight using Leishmania donovani expressing Green Fluorescent Protein (eGFP) amastigotes in the same T225 tissue culture flasks at a multiplicity of infection of 10. Next, any remaining free amastigotes were washed away with PBS and the infected THP-1 cells were harvested by trypsinisation. The infected cells were then plated into 384-well plates containing the compounds to be tested, at 3000 cells per well in RPMI media with 2% FBS and 25 mM Sodium bicarbonate. After 96 h incubation at 37° C. in presence of 5% CO2, the plates were fixed with 4% formaldehyde for 30 minutes, washed with PBS and stained with 0.1 mg/mL of DAPI for 30 minutes and washed again with PBS. The plates were imaged on a Perkin Elmer Opera high-content imaging system using a 20× air objective with two expositions, one for DAPI stain and other for eGFP. Images were analysed using the Acapella building blocks system (Perkin Elmer). The image analysis algorithm first identified the THP-1 nuclei followed by demarcation of the cytoplasm and identification of intracellular amastigotes. This algorithm reported mean number of parasites per THP-1 cell, the percentage of infected THP-1 cells and the total number of THP-1 cells.

[3] = Assay 6 Trypanosoma cruzi intracellular assay, cytotoxicity against H9c2 cells; type: cell-based; details: rat, H9C2 cardiomyocytes infected with T. cruzi trypomastigotes, total number of H9C2 cells, minimum threshold 4.3, read-out: cytotoxicity against H9c2 cells, pEC50 (converted)
Experimental: Compounds were dispensed into black 384-well assay plates (Greiner) by acoustic dispensing (LabCyte ECHO). For potency determinations, eleven-point, one in three dilution curves were generated, with a top concentration of 50 μM. H9C2 rat cardiomyocytes cells were dispensed in T225 tissue culture flasks and after 4 hours they were infected during 18 hours with T. cruzi trypomastigotes in the same T225 tissue culture flasks at a multiplicity of infection of 1. Next, any remaining free trypomastigotes were washed away with PBS and the infected H9C2 cells were harvested by trypsinisation. The infected H9C2 cells were then plated into 384-well plates containing the compounds to be tested, at 2500 cells per well in DMEM media with 2% FBS, 1% Penicillin/Streptomocin, 2 mM L-Glutamine, 1 mM Na Pyruvate and 25 mM HEPES. After 72 h incubation at 37° C. in presence of 5% CO2, the plates were fixed and stained with 4% formaldehyde and 2 μM Draq5 for 3 hours at room temperature. The plates were imaged on a Perkin Elmer Opera high-content imaging system using a 20× air objective. Images were analysed using the Acapella building blocks system (Perkin Elmer). The image analysis algorithm first identified the H9C2 nuclei followed by demarcation of the cytoplasm and identification of intracellular amastigotes. This algorithm reported mean number of parasites per H9C2 cell, the percentage of infected H9C2 cells and the total number of H9C2 cells.

[4] = Assay 4 solubility assay, ChemiLuminescent Nitrogen Detection (CLND); type: physicochemical; details: phosphate buffered saline, pH 7.4, aqueous buffer, kinetic from dmso stock, pH 7.4 PBS, from 10 mM DMSO stock, 1 h at room temperature
Method in brief: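 Kinetic solubility: 10 mM DMSO stock diluted 5 µl into 100 µl pH 7.4 PBS, incubated 1 h at room temperature, then filtered. Filtrate quantified by HPLC with chemiluminescent nitrogen detection against ondansetron and caffeine standards; solubility in µM by linear-regression calibration.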

[5] = test system: Trypanosoma cruzi; test: Assay 6 Trypanosoma cruzi intracellular assay (infected H9C2 cells); type: cell-based; details: H9c2, in Rattus norvegicus, 72 h, infected H9C2 rat cardiomyocytes, read-out: pEC50 value against Trypanosoma cruzi (converted)
Method in brief: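 Infected H9C2 rat cardiomyocytes (T. cruzi trypomastigotes, MOI 1, 18 h) plated at 2500 cells/well on compound, 11-point 1:3 curves from 50 μM top, 72 h at 37 °C in 2% FBS DMEM. Fixed, Draq5-stained, high-content imaged; algorithm counts parasites per cell, % infected cells and total host cells (cytotoxicity).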

[6] = test system: Leishmania donovani; test: Assay 1 intramacrophage Leishmania donovani assay (potency readout); type: cell-based; details: amastigotes in PMA-treated THP-1 macrophages, 96 h, average number of amastigotes per cell, minimum threshold 4.3, read-out: pEC50 value against Leishmania donovani (converted)
Experimental: as §1

[7] = test system: Trypanosoma brucei; test: Assay 3 Trypanosoma brucei cell growth inhibition assay; type: cell-based; details: T. b. brucei BSF427, 69 h + 4 h resazurin, maximum threshold 8.0, read-out: pEC50 value against Trypanosoma brucei (converted)
Experimental: Measurement of the ability of the compounds to inhibit trypanosome (T. b. brucei, BSF427, VSG118) cell growth was performed using a modification of the cell viability assay previously described by Raz et al. (Raz B.; Iten M.; Grether-Buhler Y.; Kaminski R.; Brun R. The Alamar Blue assay to determine drug sensitivity of African trypanosomes (T. b. rhodesiense and T. b. gambiense) in vitro. Acta Trop. 1997, 68, 139-147). Compounds were dissolved in DMSO at a top concentration of 10 mM and serially diluted in half log steps to achieve a range of final assay concentrations of 50 μM to 0.5 nM. Compound at each concentration (200-fold final) was added to clear 96-well tissue culture plates in a volume of 1 μL. Then 2000 cells per well in relevant growth medium (HMI-9T for T. brucei, a modification of HMI-9 as described by Hurumi et al. (Hirumi H.; Hirumi K. Continuous cultivation of Trypanosoma brucei blood stream forms in a medium containing a low concentration of serum-protein without feeder cell-layers. J. Parasitol. 1989, 75, 985-989.) where 0.2 mM 2-mercaptoethanol was replaced with 0.056 mM thiolglycerol, and MEM with 10% FBS for MRC5) were then added to columns 1-11 of the plates in a volume of 199 μL. To column 12, 200 μL of medium was added to provide a no cells control. Plates were then incubated at 37° C. in an atmosphere of 5% CO2 for 69 h, before the addition of 20 μL of 500 μM rezasurin solution, and a further incubation period of 4 h. Plates were then read on a BioTek flx800 fluorescent plate reader, and percentage inhibition was compared to the maximum and minimum assay controls. Concentration effect curves were fitted using nonlinear regression using XLFit 4.2 and EC50 values determined.

[8] = test system: Trypanosoma cruzi; test: Assay 2 Trypanosoma cruzi intracellular assay (infected Vero cells); type: cell-based; details: 72 h, read-out: pEC50 value against Trypanosoma cruzi (converted)
Experimental: Compounds were dispensed into black 384-well assay plates (Corning) by acoustic dispensing (LabCyte ECHO). For potency determinations, ten-point one in three dilution curves were generated, with a top concentration of 50 μM. Vero cells were infected overnight with T. cruzi trypomastigotes in T225 tissue culture flasks at a multiplicity of infection of 5. Next, any remaining free trypomastigotes were washed away with serum free MEM media and the infected Vero cells were harvested by trypsinisation. The infected Vero cells were then plated into 384-well plates containing the compounds to be tested, at 4000 cells per well in MEM media with 1% FCS. After 72 h incubation at 37° C. in presence of 5% CO2, the plates were fixed with 4% formaldehyde for 20 minutes at room temperature and stained with 5 μg/ml Hoechst 33342. The plates were imaged on a Perkin Elmer Operetta high-content imaging system using a 20× objective. Images were analysed using the Columbus system (Perkin Elmer). The image analysis algorithm first identified the Vero nuclei followed by demarcation of the cytoplasm and identification of intracellular amastigotes. This algorithm reported mean number of parasites per Vero cell and total number of Vero cells.

Row | SMILES | solubility at 1 h [4] [µM] | EC50 [6] [µM] | EC50 [7] [µM] | EC50 [8] [µM] | EC50 at 96 h [1] [µM] | EC50 at 96 h [2] [µM] | EC50 at 72 h [3] [µM] | EC50 [5] [µM]
1 | CN(C)c1ccc(-c2cnc3nc(-c4cc(NC(=O)N5CCCC5)ccc4F)cn3n2)cn1 [Example 16, N-(3-(2-(6-(dimethyl-amino)pyridin-3-yl)imidazo[1,2-b][1,2,4]triazin-6-yl)-4-fluorophenyl)pyrrolidine-1-carboxamide] | 1 to 6 (≈ 0.446 to 2.68 µg/mL) | > 50.1 | ≥ 20 | – | – | – | – | 0.00501 to 0.631
2 | O=S(=O)(Nc1ccc(F)c(-c2cn3nc(N4CCOCC4)cnc3n2)c1)N1CCCC1 [Example 10, N-(4-fluoro-3-(2-morpholinoimidazo[1,2-b][1,2,4]triazin-6-yl)phenyl)pyrrolidine-1-sulfonamide] | – | – | ≥ 20 | 20 | – | – | – | 10 to 39.8
3 | CN(C)S(=O)(=O)Nc1ccc(F)c(-c2cn3nc(N4CCOCC4)cnc3n2)c1 [Example 32, N-(4-fluoro-3-(2-morpholinoimidazo [1,2-b][1,2,4]triazin-6-yl)phenyl)-N′-dimethylsulfamide] | – | > 50.1 | ≥ 20 | – | – | – | – | 10 to 39.8

Continued, in another order:

Row | solubility at 1 h [4] [µM] | EC50 [6] [µM] | EC50 [7] [µM] | EC50 [8] [µM] | SMILES | EC50 at 96 h [1] [µM] | EC50 at 96 h [2] [µM] | EC50 at 72 h [3] [µM] | EC50 [5] [µM]
4 | 10 to 83 (≈ 5.52 to 45.8 µg/mL) | – | – | – | COc1ccc(CNCc2cccc(-c3cnc4nc(-c5cc(NC(=O)N6CCCC6)ccc5F)cn4n3)c2)cc1 [Example 45, N-(4-fluoro-3-(2-(3-(((4-methoxybenzyl)amino)methyl)phenyl)imidazo [1,2-b][1,2,4]triazin-6-yl)phenyl)pyrrolidine-1-carboxamide] | 3.98 to 15.8 | 2.51 to 10 | 0.794 to 3.16 | 0.00501 to 0.631
5 | – | > 50.1 | ≥ 20 | – | Cc1noc(C)c1S(=O)(=O)Nc1ccc(F)c(-c2cn3nc(N4CCOCC4)cnc3n2)c1 [Example 53, N-(4-fluoro-3-(2-morpholinoimidazo[1,2-b] [1,2,4]triazin-6-yl)phenyl)-3,5-dimethyl-isoxazole-4-sulfonamide] | – | – | – | 10 to 39.8
6 | – | > 50.1 | ≥ 20 | – | O=C(Nc1ccc(F)c(-c2cn3nc(-c4ccc(CCN5CCOCC5)cc4)cnc3n2)c1)N1CCCC1 [Example 39, N-(4-fluoro-3-(2-(4-(2-morpholinoethyl)phenyl)imidazo[1,2-b][1,2,4]triazin-6-yl)phenyl) pyrrolidine-1-carboxamide] | – | – | – | 0.00501 to 0.631
7 | – | > 50.1 | – | – | O=S(=O)(Nc1ccc(F)c(-c2cn3nc(N4CCOCC4)cnc3n2)c1)C1CCCC1 [Example 33, N-(4-fluoro-3-(2-morpholinoimidazo [1,2-b][1,2,4]triazin-6-yl)phenyl)cyclo-pentanesulfonamide] | – | – | 0.794 to 3.16 | 10 to 39.8
